The text below walks through data of ChEMBL document CHEMBL1145961, “Metabolism-directed optimization of 3-aminopyrazinone acetamide thrombin inhibitors. Development of an orally bioavailable series containing P1 and P3 pyridines” (J Med Chem, 2003).

Molecules are shown by their SMILES.

The target in data set [1] is Serine protease 1 (Homo sapiens, UniProt P07477). Briefly: Inhibitory constant against human trypsin.
Data set [2] deals with Prothrombin (Homo sapiens, UniProt P00734). Briefly: Inhibitory constant against thrombin (IIa).
The nature of data set [3]: Oral bioavailability in rat (dose 10 mg/kg). The format is ADME, organism-based. Particulars: in vivo.
Data set [4] is described as follows: in vivo. Particulars: dog, iv, 1 mg/kg.
Data set [5] can be described thus: Plasma half-life (5 mg/kg) in rhesus monkey after intravenous administration. The format is ADME, organism-based, Macaca mulatta.
The nature of data set [6]: Maximum plasma concentration in rhesus monkey after peroral administration of 5 mg/kg dose of compound. Particulars: po. Format: ADME, organism-based, Macaca mulatta. Set-up: dose 5 mg/kg, route oral.
Data set [7] in a line: Maximum plasma concentration in dog after administration of 1 mg/kg dose of compound. The format is ADME, organism-based, Canis lupus familiaris. Set-up: dose 1 mg/kg.
A short description of data set [8]: (§1) Plasma half-life in dog after peroral administration was evaluated. The format is ADME, organism-based, Canis lupus familiaris. Particulars: plasma, po.
Data set [9] can be described thus: Plasma half-life ([…] mg/kg) in rat after intravenous administration. Format: ADME, organism-based. Particulars: 10 mg/kg.
Data set [10] in a line: Concentration required to double the activated partial thromboplastin time (2x APTT) in human plasma. Format: functional.
Data set [11] in a line: Oral bioavailability in dog after administration of 1 mg/kg of compound. The format is ADME, organism-based, Canis lupus familiaris. Particulars: in vivo.
Data set [12] can be described thus: Maximum plasma concentration in rat after peroral administration of 10 mg/kg dose of compound. The format is ADME, organism-based. Set-up: dose 10 mg/kg, route oral. Particulars: po.
Data set [13] in a line: Oral bioavailability in Rhesus monkey (dose 5 mg/kg). Format: ADME, organism-based, Macaca mulatta. Particulars: in vivo.
Data set [14] can be described thus: Maximum plasma concentration in dog after peroral administration of 1 mg/kg dose of compound. As to conditions: po. On the set-up: dose 1 mg/kg, route oral. Format: ADME, organism-based, Canis lupus familiaris.
Data set [15] in a line: Maximum plasma concentration in dog after administration of 0.7 mg/kg dose of compound. Format: ADME, organism-based, Canis lupus familiaris. Set-up: dose 0.7 mg/kg.
The nature of data set [16]: Oral bioavailability in dog after administration of 0.65 mg/kg of compound. As to conditions: in vivo. Format: ADME, organism-based, Canis lupus familiaris.
A short description of data set [17]: Plasma half-life (5 mg/kg) in african green monkey after intravenous administration. The format is ADME, organism-based. Particulars: chlorocebus aethiops.
Data set [18] can be described thus: Oral bioavailability in african green monkey after administration of 5 mg/kg of compound. The format is ADME, organism-based. As to conditions: chlorocebus aethiops, in vivo.
A short description of data set [19]: Maximum plasma concentration in dog after peroral administration of 0.65 mg/kg dose of compound. Format: ADME, organism-based, Canis lupus familiaris. Set-up: dose 0.65 mg/kg, route oral. Particulars: po.
Data set [20] in a line: Plasma half-life (0.65 mg/kg) dog after intravenous administration. The format is ADME, organism-based, Canis lupus familiaris.
Data set [21] concerns Canis familiaris. Described as §1. As to conditions: in vivo, po. The format is ADME, organism-based, Canis lupus familiaris.
The nature of data set [22]: Maximum plasma concentration in african green monkey after peroral administration of 5 mg/kg dose of compound. On the set-up: dose 5 mg/kg, route oral. Particulars: chlorocebus aethiops, po. The format is ADME, organism-based.
Data set [23] in a line: Maximum plasma concentration in dog after administration of 0.5 mg/kg dose of compound. The format is ADME, organism-based, Canis lupus familiaris. On the set-up: dose 0.5 mg/kg.

Sequence of Serine protease 1 (P07477 whole entry): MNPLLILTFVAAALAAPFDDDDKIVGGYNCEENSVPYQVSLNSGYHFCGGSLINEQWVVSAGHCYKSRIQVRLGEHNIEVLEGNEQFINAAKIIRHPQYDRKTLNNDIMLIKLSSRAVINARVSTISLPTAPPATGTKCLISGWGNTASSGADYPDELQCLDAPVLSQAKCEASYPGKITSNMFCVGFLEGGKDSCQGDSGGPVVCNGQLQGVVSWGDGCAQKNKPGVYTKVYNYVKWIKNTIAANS

The term Ki denotes the dissociation constant of the complex between target and ligand, obtained from inhibition or displacement. In turn, `Cc1nc(N)ccc1CNC(=O)Cn1c(C)cnc(NCC(F)(F)c2ccccc2)c1=O` yielded a Ki in data set [1] of 0.855 µM.

As for `O=C(Cn1c(C(F)(F)F)cnc(NCC(F)(F)c2ccccn2)c1=O)NCc1ncccc1F`, the inhibitory constant (Ki) in [2] stood at 0.044 µM; in data set [1] it was 136 µM.

A word on the bioavailability: it is the share of a dose that reaches the circulation, judged against a reference dose that is usually intravenous. The half-life is the time in which the quantity being followed falls by half. The term Cmax denotes the maximum level reached in the sampled fluid or tissue. Turning to `Cc1cnc(NCC(F)(F)c2ccccn2)c(=O)n1CC(=O)NCc1ncccc1F`, the bioavailability in data set [3] amounted to 55%; in data set [11], 87%; in data set [13], 12%. The half-life was 3.5 h in data set [4], 0.99 h in [5], 3.5 h in data set [8] and 0.57 h in [9]. In addition, affinity in data set [1] was put at a Ki of 252 µM. For the same compound, the peak concentration (Cmax) came out at 1100 nM in data set [6], 5640 nM in data set [7], 2160 nM in data set [12] and 5640 nM in [14]. Besides, the “2x aPTT” value in [10] was determined as 0.67 µM.

Regarding `Cc1nc(N)ccc1CNC(=O)Cn1c(C)cnc(NCCc2ccncc2)c1=O`, the Ki in data set [2] worked out at 0.0016 µM; in data set [1], 4.6 µM. In addition, the “2x aPTT” value in data set [10] turned out to be 0.45 µM.

`Cc1nc(N)ccc1CNC(=O)Cn1c(C)cnc(NCCc2ccccc2)c1=O` [L-375378]: in data set [10], the “2x aPTT” value was 0.41 µM.

In the case of `Cc1ccnc(CNC(=O)Cn2c(C)cnc(NCC(F)(F)c3ccccn3)c2=O)c1F`, the Ki in data set [1] worked out at 118 µM. Besides, the Cmax in [15] is 1660 nM. In data set [8], this compound showed a half-life of 1 h. Moreover, the “2x aPTT” value in [10] is 0.48 µM.

In turn, `Cc1nc(N)ccc1CNC(=O)Cn1c(C)cnc(NCC(F)(F)c2ccccn2)c1=O` came in with a Ki in data set [1] of 0.8 µM. Besides, the “2x aPTT” value in [10] was determined as 0.2 µM.

In the case of `O=C(Cn1c(Cl)cnc(NCC(F)(F)c2ccccn2)c1=O)NCc1ncccc1F` [DPOC-4088], the bioavailability in [16] stood at 66%; in data set [3] it was 23%; in [18], 66%; in data set [13], 5.2%. For the same compound, the half-life in data set [17] was 1.6 h; in data set [5], 0.73 h; in [20], 4.48 h; in [9], 0.42 h. Moreover, the Ki in [2] amounted to 0.0052 µM; in data set [1] it was 202 µM. Also, the Cmax in [6] was found to be 310 nM; in data set [19], 1160 nM; in data set [7], 1380 nM; in [22] it was 1710 nM; in data set [12], 1060 nM. The same compound gave a T1/2 in data set [21] of 6.6 h. For the same compound, the “2x aPTT” value in [10] is 0.78 µM.

With `Cc1ccnc(CNC(=O)Cn2c(C#N)cnc(NCC(F)(F)c3ccccn3)c2=O)c1F`, the inhibition constant Ki is 0.0004 µM in data set [2] and 61 µM in [1]. In addition, the highest level in [7] (Cmax) was 1700 nM. In data set [8], this compound showed a half-life of 2.4 h. Moreover, in data set [10], the “2x aPTT” value is 0.31 µM.

`Cc1cnc(NCC(F)(F)c2ccccc2)c(=O)n1CC(=O)NCc1cc(Cl)ccn1`: the Ki in [2] is 0.0013 µM; in [1], 47 µM. Moreover, the “2x aPTT” value in data set [10] amounted to 0.89 µM.

Take `Cc1ccnc(CNC(=O)Cn2c(C)cnc(NCC(F)(F)c3ccccc3)c2=O)c1`: the Ki in data set [2] amounted to 0.0048 µM; in data set [1], 270 µM. For the same compound, in data set [10], the “2x aPTT” value amounted to 1.7 µM.

In the case of `N#Cc1cnc(NCC(F)(F)c2ccccn2)c(=O)n1CC(=O)NCc1ncccc1F`, the figures for the Ki in data set [2] and in [1] were 0.0023 µM and 213 µM, respectively. In addition, the Cmax in [7] turned out to be 1170 nM. This compound also had a half-life in data set [8] of 9.7 h. Also, the “2x aPTT” value in data set [10] was 0.41 µM.

For the compound `Cc1cnc(NCCc2ccccc2)c(=O)n1CC(=O)NCc1ccncc1`, the Ki in data set [2] came to 17 µM; in data set [1] it was 251 µM.

For the compound `Cc1ccnc(CNC(=O)Cn2c(Cl)cnc(NCC(F)(F)c3ccccn3)c2=O)c1`, the Ki in data set [2] was 0.0053 µM; in [1] it was 429 µM. The same compound came in with a Cmax in [7] of 2320 nM. Further, in [8], the half-life is 2.1 h. In data set [10], the “2x aPTT” value was 0.91 µM.

With `Cc1ccnc(CNC(=O)Cn2c(Cl)cnc(NCC(F)(F)c3ccccn3)c2=O)c1F`, the Ki in data set [2] was determined as 0.0009 µM; in data set [1], 80 µM. The compound further returned a Cmax in data set [7] of 670 nM. The compound also gave a half-life in [8] of 3.2 h. Besides, the “2x aPTT” value in data set [10] worked out at 0.48 µM.

For `O=C(Cn1ccnc(NCC(F)(F)c2ccccn2)c1=O)NCc1ncccc1F`, the inhibition constant (Ki) in data set [2] was 0.14 µM; in data set [1], > 1000 µM.

For `Cc1ccnc(CNC(=O)Cn2c(C)cnc(NCC(F)(F)c3ccccn3)c2=O)c1`, the results for the inhibitory constant (Ki) in data set [2] and in data set [1] were 0.0028 µM and 431 µM, respectively. The same compound came in with a Cmax in [7] of 4120 nM. The same compound gave a half-life in data set [8] of 2.4 h. For the same compound, the “2x aPTT” value in [10] turned out to be 0.59 µM.

Turning to `Cc1cnc(NCCc2ccccc2)c(=O)n1CC(=O)NCc1ccccn1`, the values for the Ki in data set [2] and in data set [1] were 0.39 µM and > 1000 µM, respectively.

With `Cc1cnc(NCC(F)(F)c2ccccc2)c(=O)n1CC(=O)NCc1ncccc1F`, the Ki came to 0.0068 µM in [2] and 501 µM in data set [1]. The Cmax in [7] is 3730 nM. This compound showed a half-life in [8] of 2 h. The “2x aPTT” value in data set [10] stood at 1.26 µM.

Consider `COc1cccnc1CNC(=O)Cn1c(Cl)cnc(NCC(F)(F)c2ccccn2)c1=O`, for which the Ki worked out at 0.015 µM in data set [2] and 706 µM in [1]. The compound further returned a Cmax in [7] of 900 nM. In data set [8], the half-life is 2.3 h. Moreover, the “2x aPTT” value in data set [10] was found to be 2.19 µM.

In the case of `Cc1ccnc(CNC(=O)Cn2c(C)cnc(NCC(F)(F)c3ccccc3)c2=O)c1F`, the Ki in [2] was determined as 0.0012 µM; in data set [1] it was 40 µM. In [7], this compound showed a Cmax of 1830 nM. For the same compound, the half-life in data set [8] is 0.7 h. Besides, the “2x aPTT” value in data set [10] is 0.72 µM.

As to `Cc1cnc(NCCc2ccccc2)c(=O)n1CC(=O)NCc1cccnc1`, the Ki came to 1.2 µM in data set [2] and 898 µM in data set [1].

As to `O=C(Cn1c(Cl)cnc(NCC(F)(F)c2ccccn2)c1=O)NCc1ncccc1Cl`, the inhibition constant Ki in data set [2] amounted to 0.0079 µM; in data set [1], 567 µM. The same compound came in with a maximum concentration (Cmax) in [7] of 62 nM. In addition, the half-life in [8] was 5.7 h. In data set [10], the “2x aPTT” value worked out at 1.41 µM.

Turning to `Cc1nc(N)ccc1CNC(=O)Cn1c(C)cnc(NCCc2cccnc2)c1=O`, the Ki came out at 0.00054 µM in data set [2] and 3.8 µM in data set [1]. Further, the “2x aPTT” value in data set [10] amounted to 0.28 µM.

Take `COc1ccnc(CNC(=O)Cn2c(Cl)cnc(NCC(F)(F)c3ccccn3)c2=O)c1`: the Ki in [2] worked out at 0.0036 µM; in [1], 665 µM. This compound also showed a half-life in data set [8] of 2 h. Also, in data set [10], the “2x aPTT” value was determined as 0.71 µM. In [23], the Cmax was 530 nM.

On to `Cc1cnc(NCC(F)(F)c2ccccn2)c(=O)n1CC(=O)NCc1ccccn1`, for which the Ki is 0.015 µM in data set [2] and > 1000 µM in [1]. The “2x aPTT” value in data set [10] was found to be 2.2 µM.

For the compound `Cc1nc(N)ccc1CNC(=O)Cn1c(C)cnc(NCC(C)c2ccccc2)c1=O` (centres undefined), the figures for the inhibition constant Ki in data set [2] and in data set [1] were 0.0011 µM and 1.6 µM, respectively. Also, in data set [10], the “2x aPTT” value was 0.61 µM.

For the compound `Cc1nc(N)ccc1CNC(=O)Cn1c(C)cnc(NCCc2ccccn2)c1=O`, the Ki was 0.00027 µM in [2] and 3.6 µM in [1]. For the same compound, in data set [10], the “2x aPTT” value turned out to be 0.31 µM.

`Cc1nc(N)ccc1CNC(=O)Cn1c(C)cnc(NCC(C)(C)c2ccccc2)c1=O`: the Ki in data set [2] came to 0.0011 µM; in data set [1], 0.8 µM. Further, the “2x aPTT” value in [10] stood at 0.5 µM.

Consider `Cc1ncccc1CNC(=O)Cn1c(C)cnc(NCCc2ccccc2)c1=O`, for which the Ki was 0.28 µM in data set [2] and > 100 µM in [1].
